Laboratory results as given in patent US20090088380A1, “GHRH ANALOGS AND THERAPEUTIC USES THEREOF” (priority 2007, published 2009).
“And” between values parts separate entries of the source, which are not always exact repeats. Equal entries are not always repeated. Non-standard residues stand in square brackets, D forms with d. Residues, ends and D or L forms follow the SMILES beside them.

Assays:
Canine Growth Hormone = experiment: In vivo GH secretion in a male Beagle dog, escalating SC doses, RIA
From the text: In order to assess such use of the GHRH analogs, the following experiments were undertaken. […] The above GHRH analog is a variation of a synthetic acetate salt of an amidated synthetic 29-amino acid peptide that corresponds to the amino-terminal segment of the naturally-occurring human growth hormone—releasing hormone (GHRH) with four amino acid substitutions in positions 2, 10, 15, and 22.
Prior to administration, all dosing formulations were filtered using a 0.22 μm filter to ensure sterility. […] Dosing started at approximately the same time each day, commencing at 9:00 am ±30 minutes.
For pharmacodynamic investigations, blood samples (approximately 1.0 ml) were collected from the dog on each treatment day via a jugular venipuncture at the following time points: pre-dose, 7, 15, 22, 30, 45, and 60 minutes post dosing. All blood samples were collected into potassium EDTA tubes and centrifuged under refrigeration (2 to 8° C., 1500 g for 10 minutes).
Plasma GH was determined by Linco Diagnostic Services using their own kit. Linco's Porcine/Canine Growth Hormone radioimmunoassay kit (RIA) (PGH-46HK) has been developed to quantitate Growth Hormone in plasma, serum, and tissue culture media. It is a completely homologous assay since the antibody was raised against recombinant Porcine Growth Hormone and both the standard and tracer are prepared with recombinant Porcine Growth Hormone. Since the amino acid sequences of Porcine Growth Hormone and Canine Growth Hormone are identical, this assay developed for Porcine Growth Hormone measures Canine Growth Hormone levels with equal efficiency. All components are included (standards, antibody, tracer, quality controls, precipitating reagents and buffer) necessary to complete a RIA. The assay was conducted under the following conditions: overnight; equilibrium incubation at room temperature; sample volume: 100 μl serum, plasma, or cell culture media.

[1] = test system: malnourished subjects with CKD; experiment: Phase II CKD: anthropometry; type: in vivo, human; conditions: ITT
Description: Height (cm) was measured only at the screening visit. Anthrompometry was measured at every visit from baseline to follow-up. Anthropometric measurements included weight, skinfold thicknesses and arm circumference. Weight (kg) was measured using a high performance scale. Subjects were asked to stand on the scale with minimal clothing, no shoes, and with even weight on both feet. Skinfold thickness (mm) was measured by using Harpenden Skinfold Callipers at 4 sites: biceps, triceps, suprailiacal and subscapular. Arm circumference (cm) was measured using a tape measure that is flexible, inelastic and metric. The site measured was marked, and the tape was not to be too tight or too loose, and to lie flat on the skin, and be horizontal. Bioimpedance measurements were made to measure body composition at every visit from baseline to Day 28. The bioimpedance scale (RJL Systems) was used. Resistance, reactance and the phase angle were recorded.

[2] = test system: malnourished subjects with CKD; experiment: Phase II CKD: 24-hour urine collection, creatinine and urea clearance, GFR, PNA; type: in vivo, human; conditions: for Creatinine (24-hour urine): mean (SD) / Creatinine clearance: median / GFR: median / Urea (24-hour urine): mean (SD) / Urea clearance: mean (SD) / nPNA: mean (SD): ITT population
Description: Subjects collected 24-hour urine samples at screening, baseline (Days 0 to 1) and Days 28 to 29. All of the samples were analysed for creatinine and urea clearance (mL/min). The samples collected at baseline and on Day 28 were also analysed for proteinuria (Coumassie method), PNA, sodium, potassium, chloride, calcium and phosphate. GFR was calculated using the Cockcroft-Gault formula: […]

[3] = test system: malnourished subjects with CKD; experiment: Phase II CKD: dietary assessment (spontaneous nutrient intake); type: in vivo, human; conditions: ITT
Description: Dietary assessments were performed at the baseline visit and were repeated on Day 28. The subjects were asked to write down everything they ate and drank throughout the 3 days preceding the visit. The local dietician then calculated the mean amount of carbohydrates, fat and protein consumed by the subjects per day and calculated energy intake.

[4] = test system: IGF-1, IGFBP-1 and IGFBP-3; experiment: Phase II CKD: total IGF-1, IGFBP-1 and IGFBP-3; type: in vivo, human; conditions: day 42
[5] = GHRH vs placebo, Day 28, ANOVA for repeated measures
[6] = Baseline, listed as GHRH(1-29)NH2 synthetic analog
[7] = Day 28, listed as GHRH(1-29)NH2 synthetic analog

CC[C@H](C)[C@H](NC(=O)[C@H](C)NC(=O)[C@H](CC(=O)O)NC(=O)[C@@H](C)NC(=O)[C@@H](N)Cc1ccc(O)cc1)C(=O)N[C@@H](Cc1ccccc1)C(=O)N[C@H](C(=O)N[C@@H](CC(N)=O)C(=O)N[C@@H](CO)C(=O)N[C@H](Cc1ccc(O)cc1)C(=O)N[C@@H](CCCNC(=N)N)C(=O)N[C@@H](CCCCN)C(=O)N[C@H](C(=O)N[C@@H](CC(C)C)C(=O)N[C@H](C)C(=O)N[C@@H](CCC(N)=O)C(=O)N[C@@H](CC(C)C)C(=O)N[C@@H](CO)C(=O)N[C@@H](C)C(=O)N[C@@H](CCCNC(=N)N)C(=O)N[C@@H](CCCCN)C(=O)N[C@@H](CCCCN)C(=O)N[C@@H](CC(C)C)C(=O)N[C@@H](CCC(N)=O)C(=O)N[C@@H](CC(=O)O)C(=O)N[C@H](C(=O)N[C@@H](CCSC)C(=O)N[C@@H](CO)C(=O)N[C@@H](CCCNC(=N)N)C(N)=O)[C@@H](C)CC)C(C)C)[C@@H](C)O [GHRH analog #5, [D-Ala^2, D-Tyr^10, D-Ala^15, Lys^22] hGHRH(1-29)-NH2] (H-Y[dA]DAIFTNS[dY]RKVL[dA]QLSARKKLQDIMSR-NH2)
Canine Growth Hormone (Canine Growth Hormone; 0.01 mg/kg BW SC, 0 min): 1.99 ng/mL
Canine Growth Hormone (Canine Growth Hormone; 0.01 mg/kg BW SC, 7 min): 1.99 ng/mL
Canine Growth Hormone (Canine Growth Hormone; 0.01 mg/kg BW SC, 15 min): 5 ng/mL
Canine Growth Hormone (Canine Growth Hormone; 0.01 mg/kg BW SC, 22 min): 4 ng/mL
Canine Growth Hormone (Canine Growth Hormone; 0.01 mg/kg BW SC, 30 min): 11 ng/mL
Canine Growth Hormone (Canine Growth Hormone; 0.01 mg/kg BW SC, 45 min): 17 ng/mL
Canine Growth Hormone (Canine Growth Hormone; 0.01 mg/kg BW SC, 60 min): 11 ng/mL
Canine Growth Hormone (Canine Growth Hormone; 0.1 mg/kg BW SC, 0 min): 1.99 ng/mL
Canine Growth Hormone (Canine Growth Hormone; 0.1 mg/kg BW SC, 7 min): 5 ng/mL
Canine Growth Hormone (Canine Growth Hormone; 0.1 mg/kg BW SC, 15 min): 9 ng/mL
Canine Growth Hormone (Canine Growth Hormone; 0.1 mg/kg BW SC, 22 min): 7 ng/mL
Canine Growth Hormone (Canine Growth Hormone; 0.1 mg/kg BW SC, 30 min): 6 ng/mL
Canine Growth Hormone (Canine Growth Hormone; 0.1 mg/kg BW SC, 45 min): 5 ng/mL
Canine Growth Hormone (Canine Growth Hormone; 0.1 mg/kg BW SC, 60 min): 1.99 ng/mL
Canine Growth Hormone (Canine Growth Hormone; 1 mg/kg BW SC, 0 min): 1.99 ng/mL
Canine Growth Hormone (Canine Growth Hormone; 1 mg/kg BW SC, 7 min): 4 ng/mL
Canine Growth Hormone (Canine Growth Hormone; 1 mg/kg BW SC, 15 min): 14 ng/mL
Canine Growth Hormone (Canine Growth Hormone; 1 mg/kg BW SC, 22 min): 9 ng/mL
Canine Growth Hormone (Canine Growth Hormone; 1 mg/kg BW SC, 30 min): 19 ng/mL
Canine Growth Hormone (Canine Growth Hormone; 1 mg/kg BW SC, 45 min): 7 ng/mL
Canine Growth Hormone (Canine Growth Hormone; 1 mg/kg BW SC, 60 min): 7 ng/mL
Treatment-related clinical signs (Canine Growth Hormone; dog): No treatment-related clinical signs were observed
GH response compared with natural hGHRH(1-44)NH2 (Canine Growth Hormone; dog, AUC not measured): significantly larger
GH secretion into peripheral blood, dose dependence (Canine Growth Hormone; dog, subcutaneous): dose-dependent response
Optimal sc dose (Canine Growth Hormone; dogs): 10 μg/kg body weight
Arm circumference: mean (SD) ([1]; Baseline): 26.35 (5.42) cm
Body weight: mean (SD) ([1]; Baseline): 62.84 (9.98) kg
Skinfold thickness biceps: median ([1]; Baseline): 5.1 mm
Skinfold thickness subscapular: median ([1]; Baseline): 8.0 mm
Skinfold thickness suprailiacal: median ([1]; Baseline): 7.0 mm
Skinfold thickness triceps: median ([1]; Baseline): 12.0 mm
Arm circumference: mean (SD) ([1]; Day 28): 27.33 (4.81) cm
Body weight: mean (SD) ([1]; Day 28): 63.21 (10.45) kg
Skinfold thickness biceps: median ([1]; Day 28): 4.1 mm
Skinfold thickness subscapular: median ([1]; Day 28): 8.6 mm
Skinfold thickness suprailiacal: median ([1]; Day 28): 7.3 mm
Skinfold thickness triceps: median ([1]; Day 28): 13.3 mm
Arm circumference: adjusted difference ([1]; vs placebo): 0.33 cm
Body weight: adjusted difference ([1]; vs placebo): 0.96 kg
Skinfold thickness triceps: ratio ([1]; vs placebo): 1.066
Fat free mass (kg): mean (SD) ([1]; anthropometry, Baseline): 46.64 (9.13) kg
Fat mass (%): median ([1]; anthropometry, Baseline): 25.4%
Fat mass (kg): median ([1]; anthropometry, Baseline): 15.8 kg
Fat free mass (kg): mean (SD) ([1]; anthropometry, Baseline, listed as GHRH(1-29)NH2 synthetic analog): 46.64 kg
Fat free mass (kg): mean (SD) ([1]; anthropometry, Day 28): 46.20 (9.16) kg
Fat mass (%): median ([1]; anthropometry, Day 28): 25.9%
Fat mass (kg): median ([1]; anthropometry, Day 28): 15.6 kg
Fat free mass (kg): mean (SD) ([1]; anthropometry, Day 28, listed as GHRH(1-29)NH2 synthetic analog): 46.20 kg
Fat free mass (kg): adjusted difference ([1]; anthropometry, vs placebo): 0.41 kg
Creatinine (24-hour urine): mean (SD) ([2]; Baseline): 10.44 (5.10) mmol/24 hours
Creatinine clearance: median ([2]; Baseline): 24.92 mL/min/1.73 m^−2
GFR: median ([2]; Baseline): 19.37 ml/min/1.73 m^−2
Urea (24-hour urine): mean (SD) ([2]; Baseline): 343.53 (170.39) mmol/24 hours
Urea clearance: mean (SD) ([2]; Baseline): 11.858 (5.820) mL/min/1.73 m^−2
nPNA: mean (SD) ([2]; Baseline): 2.3648 (1.1530) g/kg body weight/24 h
Mean urea clearance rate ([2]; Day 28): 11.24 mL/min/1.73 m^−2
Median GFR ([2]; Day 28): 18.23 mL/min/1.73 m^−2
Median creatinine clearance ([2]; Day 28): 23.78 mL/min/1.73 m^−2
Creatinine (24-hour urine): mean (SD) ([2]; Day 28): 9.68 (3.29) mmol/24 hours
Creatinine clearance: median ([2]; Day 28): 23.78 mL/min/1.73 m^−2
GFR: median ([2]; Day 28): 18.23 ml/min/1.73 m^−2
Urea (24-hour urine): mean (SD) ([2]; Day 28): 235.87 (88.51) mmol/24 hours
Urea clearance: mean (SD) ([2]; Day 28): 11.244 (4.200) mL/min/1.73 m^−2
nPNA: mean (SD) ([2]; Day 28): 1.6198 (0.5892) g/kg body weight/24 h
Urea clearance: adjusted difference or comparison [2, 5]: 2.28 mL/min/1.73 m^−2
nPNA: adjusted difference or comparison [2, 5]: −0.553 g/kg body weight/24 h
nPNA: mean value ([2]; after decrease (day 28)): 1.6198 g/kg body weight/24 h
Mean urea clearance rate ([2]; baseline): 11.86 mL/min/1.73 m^−2
Median GFR ([2]; baseline): 19.37 mL/min/1.73 m^−2
Median creatinine clearance ([2]; baseline): 24.92 mL/min/1.73 m^−2
nPNA: mean value ([2]; before decrease (baseline)): 2.3648 g/kg body weight/24 h
Urea clearance: adjusted mean difference between GHRH and placebo arm ([2]; day 28): 2.28 ml/min/1.73 m^2
nPNA: adjusted mean difference between GHRH and placebo arm ([2]; day 28): −0.553 g/kg body weight/24 h
GFR: improvement against baseline, one patient ([2]; one patient): 78.56%
Creatinine clearance: improvement against baseline, individual patients ([2]; two patients): 124.63% and 115.65%
Urea clearance: improvement against baseline, individual patients ([2]; two patients, listed as GHRH(1-29)NH2 synthetic analog): 123.99% and 103.49%
Energy intake: mean (SD) ([3]; Baseline): 1654 kcal/day and 1654.45 (394.75) kcal/day
Protein intake: mean (SD) ([3]; Baseline): 62.46 g/day and 62.46 (17.71) g/day
Energy intake: mean (SD) [3, 6]: 1654.5 kcal/day
Protein intake: mean (SD) [3, 6]: 62.5 g/day
Energy intake: mean (SD) ([3]; Day 28): 1533 kcal/day and 1532.70 (384.52) kcal/day
Protein intake: mean (SD) ([3]; Day 28): 58.49 g/day and 58.49 (19.76) g/day
Energy intake: mean (SD) [3, 7]: 1532.7 kcal/day
Protein intake: mean (SD) [3, 7]: 58.5 g/day
Median IGF-1 after treatment discontinuation [4]: 368.2 ng/mL
